Test results taken from ChEMBL document CHEMBL1697781, “Assessment of the health effects of chemicals in humans: II. Construction of an adverse effects database for QSAR modeling” (Curr Drug Discov Technol, 2004).

Assays:
Conditions in all cases: human; call rule not given here
[1] = test system: Hepatotoxicity; assay: FDA HLAED, serum glutamic pyruvic transaminase (SGPT) increase
[2] = test system: Hepatotoxicity; assay: FDA HLAED, liver enzyme composite activity
[3] = test system: Hepatotoxicity; assay: FDA HLAED, serum glutamic oxaloacetic transaminase (SGOT) increase
[4] = test system: Hepatotoxicity; assay: FDA HLAED, lactate dehydrogenase (LDH) increase
[5] = test system: Hepatotoxicity; assay: FDA HLAED, alkaline phosphatase increase
[6] = test system: Hepatotoxicity; assay: FDA HLAED, gamma-glutamyl transferase (GGT) increase
Throughout, for GGT Increase - Index Value: reference of the scale not given here.
Throughout, for LDH Increase - Index Value: reference of the scale not given here.

SMILES	SGPT Increase - Activity Score [1]	SGPT Increase - Index Value [1]	SGPT Increase - Number of Reports [1]	SGOT Increase - Activity Score [3]	SGOT Increase - Index Value [3]	SGOT Increase - Number of Reports [3]	LDH Increase - Activity Score [4]	LDH Increase - Index Value [4]	LDH Increase - Number of Reports [4]	Alkaline Phosphatase Increase - Activity Score [5]	Alkaline Phosphatase Increase - Index Value [5]	Alkaline Phosphatase Increase - Number of Reports [5]	GGT Increase - Activity Score [6]	GGT Increase - Index Value [6]	GGT Increase - Number of Reports [6]	Composite Activity - Active [2]	Composite Activity - Marginal [2]	Composite Activity - Score [2]	other results
CN1CCC[C@H]1c1cccnc1 [NICOTINE]	Inactive	0.6	< 4	Inactive	0.6	< 4	Inactive	0.9	< 4	Inactive	0	< 4	Inactive	0.3	< 4	–	–	–	Composite Activity - Active ([2]; Liver): 0; Composite Activity - Marginal ([2]; Liver): 0; Composite Activity - Score ([2]; Liver): Inactive
CCN[C@@H](C)Cc1cccc(C(F)(F)F)c1 [DEXFENFLURAMINE]	Inactive	0.6	< 4	Inactive	1	>= 4	Inactive	0.4	< 4	Inactive	0.2	< 4	Inactive	0.6	< 4	0	0	Inactive	–
C[C@H](O)C(=O)Nc1c(I)c(C(=O)NC(CO)CO)c(I)c(C(=O)NC(CO)CO)c1I [IOPAMIDOL]	Inactive	0	< 4	Inactive	526.3	< 4	Active	1579	< 4	Inactive	0	< 4	Inactive	0	< 4	1	0	Inactive	–
NC(=O)OCC(COC(N)=O)c1ccccc1 [FELBAMATE]	Active	11.7	>= 4	Active	11.7	>= 4	Active	8.3	>= 4	Active	15	>= 4	Active	15.8	>= 4	5	0	Active	–
NCCNCCNCCN [TRIENTINE]	Inactive	69.4	< 4	Inactive	69.4	< 4	Inactive	0	< 4	Inactive	0	< 4	Inactive	0	< 4	–	–	–	Composite Activity - Active ([2]; Liver): 0; Composite Activity - Marginal ([2]; Liver): 0; Composite Activity - Score ([2]; Liver): Inactive
CC[N+](C)(C)Cc1ccccc1Br.Cc1ccc(S(=O)(=O)[O-])cc1 [BRETYLIUM TOSYLATE]	Inactive	0	< 4	Inactive	0	< 4	Inactive	0	< 4	Inactive	0	< 4	Inactive	0	< 4	0	0	Inactive	–
CCC1=C[C@@H]2CN(C1)Cc1c([nH]c3ccccc13)[C@@](C(=O)OC)(c1cc3c(cc1OC)N(C)[C@H]1[C@@](O)(C(=O)OC)[C@H](OC(C)=O)[C@]4(CC)C=CCN5CC[C@]31[C@@H]54)C2 [VINORELBINE]	Inactive	1.9	< 4	Inactive	0.9	< 4	Active	4.7	>= 4	Inactive	2.8	< 4	Inactive	0.9	< 4	1	0	Inactive	–
CCCCCCCCCC(=O)CC(=O)O[C@H]1CC[C@H]2[C@@H]3CCC4=CC(=O)CC[C@]4(C)[C@H]3CC[C@]12C [TESTOSTERONE KETOLAURATE]	Inactive	7.2	< 4	Inactive	4.8	< 4	Inactive	2.4	< 4	Inactive	0	< 4	Inactive	4.8	< 4	0	0	Inactive	–
COc1ccc(OC)c(C(O)CNC(=O)CN)c1 (configuration not stated) [MIDODRINE]	Inactive	0	< 4	Inactive	0	< 4	Inactive	0	< 4	Inactive	0	< 4	Inactive	0	< 4	0	0	Inactive	–
